Structures can show the parent of a compound that is named as a salt.
Biological target: T1, c-kit autophosphorylation (Phospho c-Kit Tyr721) in HMC 1.1 (exon 11/13) cells, V654A (Homo sapiens, UniProt P10721, V560G/V654A)
T1 construct: endogenous in cells; host or cells: HMC 1.1 (exon 11/13) cells
Test: pKIT Meso Scale Discovery (MSD) assay, inhibition of autophosphorylation of KIT, HMC1.1_V654A
Format: cell-based
Conditions: Table 1, cell line not named for Table 1, b1056 names pKIT HMC1.1_V654A, read-out: Code (IC50 for inhibition of autophosphorylation of KIT, pKIT MSD assay)
Procedure, shortened: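 HMC1.1 cells were serum-starved for 4 h in serum-free, iron-free, phenol red-free IMDM, then treated with compound in dose-response for 90 min at 37 °C. Staurosporine and DMSO served as controls. Lysates were analysed by MSD electrochemiluminescence immunoassay for phospho-c-Kit Tyr721, and % inhibition of autophosphorylation was derived.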

T1 sequence (P10721 26-976 V560G/V654A): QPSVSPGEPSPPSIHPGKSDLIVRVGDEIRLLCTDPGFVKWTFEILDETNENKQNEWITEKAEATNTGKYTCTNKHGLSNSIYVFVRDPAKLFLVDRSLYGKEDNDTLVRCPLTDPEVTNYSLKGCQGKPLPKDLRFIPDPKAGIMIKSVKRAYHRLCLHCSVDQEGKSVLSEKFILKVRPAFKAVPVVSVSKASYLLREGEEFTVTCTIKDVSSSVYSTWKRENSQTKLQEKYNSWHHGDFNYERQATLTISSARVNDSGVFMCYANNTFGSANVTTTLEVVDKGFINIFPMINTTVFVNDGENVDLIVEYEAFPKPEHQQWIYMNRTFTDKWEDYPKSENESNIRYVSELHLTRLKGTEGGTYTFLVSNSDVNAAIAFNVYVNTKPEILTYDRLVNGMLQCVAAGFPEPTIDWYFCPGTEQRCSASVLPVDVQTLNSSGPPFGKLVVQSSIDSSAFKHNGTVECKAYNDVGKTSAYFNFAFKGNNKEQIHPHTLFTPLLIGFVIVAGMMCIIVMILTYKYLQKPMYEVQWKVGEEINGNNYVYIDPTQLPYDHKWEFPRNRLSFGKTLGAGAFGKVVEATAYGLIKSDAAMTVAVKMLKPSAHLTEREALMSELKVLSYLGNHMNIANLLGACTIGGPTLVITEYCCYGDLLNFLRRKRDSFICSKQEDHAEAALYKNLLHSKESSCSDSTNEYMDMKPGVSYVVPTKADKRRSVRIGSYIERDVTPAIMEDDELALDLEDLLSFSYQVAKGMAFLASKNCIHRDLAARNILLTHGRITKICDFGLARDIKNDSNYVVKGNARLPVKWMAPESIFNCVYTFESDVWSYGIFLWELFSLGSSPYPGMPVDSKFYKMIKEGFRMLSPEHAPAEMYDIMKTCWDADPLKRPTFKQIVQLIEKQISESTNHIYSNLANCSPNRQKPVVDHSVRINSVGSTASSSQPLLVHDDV

| Structure (SMILES) | IC50 [nM] |
| --- | --- |
| Nc1cc(Nc2cc(OC3CC3)c(-c3cnn(CC4CCO4)c3)cn2)nc(C(F)F)n1 (stereo not drawn) [Compound 166, N4-(4-cyclopropoxy-5-(1-(oxetan-2-ylmethyl)-1H-pyrazol-4-yl)pyridin-2-yl)-2-(difluoromethyl)pyrimidine-4,6-diamine] | < 10 |
| Nc1cc(Nc2cc(OC3COC3)c(-c3cnn(C4CNC4)c3)cn2)nc(C(F)F)n1 [Compound 168, N4-(5-(1-(azetidin-3-yl)-1H-pyrazol-4-yl)-4-(oxetan-3-yloxy)pyridin-2-yl)-2-(difluoromethyl)pyrimidine-4,6-diamine formate] | > 40 |
| CN(C)CCn1cc(-c2cnc(Nc3cc(N)nc(C(F)F)n3)cc2OC2CC2)cn1 [Compound 171, N4-(4-cyclopropoxy-5-(1-(2-(dimethylamino)ethyl)-1H-pyrazol-4-yl)pyridin-2-yl)-2-(difluoromethyl)pyrimidine-4,6-diamine] | < 10 |
| CC(C)(O)Cn1cc(-c2cnc(Nc3cc(N)nc(C(F)F)n3)cc2OC2CC2)cn1 [Compound 173, 1-(4-(6-((6-amino-2-(difluoromethyl)pyrimidin-4-yl)amino)-4-cyclopropoxypyridin-3-yl)-1H-pyrazol-1-yl)-2-methylpropan-2-ol] | < 10 |
| C[C@@H](CF)Nc1cc(Nc2cc(N)nc(C(F)F)n2)ncc1C(=O)NCc1cocn1 [Compound 176, (S)-6-((6-amino-2-(difluoromethyl)pyrimidin-4-yl)amino)-4-((1-fluoropropan-2-yl)amino)-N-(oxazol-4-ylmethyl)nicotinamide] | < 10 |
| Cn1cc(-c2cnc(Nc3cc(N)nc(C(F)F)n3)cc2OCc2cccc(N)c2)cn1 [Compound 178, N4-(4-((3-aminobenzyl)oxy)-5-(1-methyl-1H-pyrazol-4-yl)pyridin-2-yl)-2-(difluoromethyl)pyrimidine-4,6-diamine] | < 10 |
| CN(C)CCn1cc(-c2cnc(Nc3cc(N)nc(C(F)F)n3)cc2OC(F)F)cn1 [Compound 179, N4-(4-(difluoromethoxy)-5-(1-(2-(dimethylamino)ethyl)-1H-pyrazol-4-yl)pyridin-2-yl)-2-(difluoromethyl)pyrimidine-4,6-diamine] | < 10 |
| CNC(C)Cn1cc(-c2cnc(Nc3cc(N)nc(C(F)F)n3)cc2OC(F)F)cn1 (stereo not drawn) [Compound 180, N4-(4-(difluoromethoxy)-5-(1-(2-(methylamino)propyl)-1H-pyrazol-4-yl)pyridin-2-yl)-2-(difluoromethyl)pyrimidine-4,6-diamine] | < 10 |
| CN1CC(n2cc(-c3cnc(Nc4cc(N)nc(C(F)F)n4)cc3OC3COC3)cn2)C1 [Compound 183, 2-(difluoromethyl)-N4-(5-(1-(1-methylazetidin-3-yl)-1H-pyrazol-4-yl)-4-(oxetan-3-yloxy)pyridin-2-yl)pyrimidine-4,6-diamine] | > 40 |
| CNC(C)(C)Cn1cc(-c2cnc(Nc3cc(N)nc(C(F)F)n3)cc2OC2CC2)cn1 [Compound 184, N4-(4-cyclopropoxy-5-(1-(2-methyl-2-(methylamino)propyl)-1H-pyrazol-4-yl)pyridin-2-yl)-2-(difluoromethyl)pyrimidine-4,6-diamine] | < 10 |
| CC(C)(O)CCn1cc(-c2cnc(Nc3cc(N)nc(C(F)F)n3)cc2OC2CC2)cn1 [Compound 185, 4-(4-(6-((6-amino-2-(difluoromethyl)pyrimidin-4-yl)amino)-4-cyclopropoxypyridin-3-yl)-1H-pyrazol-1-yl)-2-methylbutan-2-ol] | < 10 |
| C[C@@H](CF)Nc1cc(Nc2cc(N)nc(C(F)F)n2)ncc1C(=O)NCc1ccccn1 [Compound 186, (S)-6-((6-amino-2-(difluoromethyl)pyrimidin-4-yl)amino)-4-((1-fluoropropan-2-yl)amino)-N-(pyridin-2-ylmethyl)nicotinamide] | < 10 |
| C[C@H](CF)Nc1cc(Nc2cc(N)nc(C(F)F)n2)ncc1C(=O)NCc1ccccn1 [Compound 187, (R)-6-((6-amino-2-(difluoromethyl)pyrimidin-4-yl)amino)-4-((1-fluoropropan-2-yl)amino)-N-(pyridin-2-ylmethyl)nicotinamide] | 10 to 40 |
| C[C@H](CF)Nc1cc(Nc2cc(N)nc(C(F)F)n2)ncc1C(=O)NC12CC(CO)(C1)C2 [Compound 189, (R)-6-((6-amino-2-(difluoromethyl)pyrimidin-4-yl)amino)-4-((1-fluoropropan-2-yl)amino)-N-(3-(hydroxymethyl)bicyclo[1.1.1]pentan-1-yl)nicotinamide] | 10 to 40 |
| CN1CCC(n2cc(-c3cnc(Nc4cc(N)nc(C(F)F)n4)cc3OC(F)F)cn2)C1 (stereo not drawn) [Compound 192, N4-(4-(difluoromethoxy)-5-(1-(1-methylpyrrolidin-3-yl)-1H-pyrazol-4-yl)pyridin-2-yl)-2-(difluoromethyl)pyrimidine-4,6-diamine] | < 10 |
| CNC(C)(C)Cn1cc(-c2cnc(Nc3cc(N)nc(C(F)F)n3)cc2OC(F)F)cn1 [Compound 193, N4-(4-(difluoromethoxy)-5-(1-(2-methyl-2-(methylamino)propyl)-1H-pyrazol-4-yl)pyridin-2-yl)-2-(difluoromethyl)pyrimidine-4,6-diamine] | < 10 |
| CN(C)CCn1cc(-c2cnc(Nc3cc(N)nc(C(F)F)n3)cc2OC(F)(F)F)cn1 [Compound 194, 2-(difluoromethyl)-N4-(5-(1-(2-(dimethylamino)ethyl)-1H-pyrazol-4-yl)-4-(trifluoromethoxy)pyridin-2-yl)pyrimidine-4,6-diamine] | < 10 |
| COc1cc(Nc2cc(N)nc(C(F)F)n2)ncc1-c1cnn(CCNCC(F)(F)F)c1 [Compound 197, 2-(difluoromethyl)-N4-(4-methoxy-5-(1-(2-((2,2,2-trifluoroethyl)amino)ethyl)-1H-pyrazol-4-yl)pyridin-2-yl)pyrimidine-4,6-diamine] | < 10 |
| CC(C)(O)Cn1cc(-c2cnc(Nc3cc(N)nc(C(F)F)n3)cc2OC(F)(F)F)cn1 [Compound 198, 1-(4-(6-((6-amino-2-(difluoromethyl)pyrimidin-4-yl)amino)-4-(trifluoromethoxy)pyridin-3-yl)-1H-pyrazol-1-yl)-2-methylpropan-2-ol] | < 10 |

Next, values leading:

| IC50 [nM] | Structure (SMILES) |
| --- | --- |
| < 10 | CC(C)(N)Cn1cc(-c2cnc(Nc3cc(N)nc(C(F)F)n3)cc2OC2CC2)cn1 [Compound 169, N4-(5-(1-(2-amino-2-methylpropyl)-1H-pyrazol-4-yl)-4-cyclopropoxypyridin-2-yl)-2-(difluoromethyl)pyrimidine-4,6-diamine] |
| < 10 | CNC(C)Cn1cc(-c2cnc(Nc3cc(N)nc(C(F)F)n3)cc2OC2CC2)cn1 (stereo not drawn) [Compound 170, N4-(4-cyclopropoxy-5-(1-(2-(methylamino)propyl)-1H-pyrazol-4-yl)pyridin-2-yl)-2-(difluoromethyl)pyrimidine-4,6-diamine] |
| 10 to 40 | Cn1cc(-c2cnc(Nc3cc(N)nc(C(F)F)n3)cc2OCC2CCCCO2)cn1 (stereo not drawn) [Compound 172, 2-(difluoromethyl)-N4-(5-(1-methyl-1H-pyrazol-4-yl)-4-((tetrahydro-2H-pyran-2-yl)methoxy)pyridin-2-yl)pyrimidine-4,6-diamine] |
| < 10 | Nc1cc(Nc2cc(NC3CC3)c(C(=O)NC34CC(CO)(C3)C4)cn2)nc(C(F)F)n1 [Compound 174, 6-((6-amino-2-(difluoromethyl)pyrimidin-4-yl)amino)-4-(cyclopropylamino)-N-(3-(hydroxymethyl)bicyclo[1.1.1]pentan-1-yl)nicotinamide] |
| > 40 | CNCCn1cc(-c2cnc(Nc3cc(N)nc(C(F)F)n3)cc2OC2COC2)cn1 [Compound 175, 2-(difluoromethyl)-N4-(5-(1-(2-(methylamino)ethyl)-1H-pyrazol-4-yl)-4-(oxetan-3-yloxy)pyridin-2-yl)pyrimidine-4,6-diamine] |
| 10 to 40 | C[C@H](CF)Nc1cc(Nc2cc(N)nc(C(F)F)n2)ncc1C(=O)NCc1cocn1 [Compound 177, (R)-6-((6-amino-2-(difluoromethyl)pyrimidin-4-yl)amino)-4-((1-fluoropropan-2-yl)amino)-N-(oxazol-4-ylmethyl)nicotinamide] |
| < 10 | CC(C)(O)Cn1cc(-c2cnc(Nc3cc(N)nc(C(F)F)n3)cc2OC(F)F)cn1 [Compound 181, 1-(4-(6-((6-amino-2-(difluoromethyl)pyrimidin-4-yl)amino)-4-(difluoromethoxy)pyridin-3-yl)-1H-pyrazol-1-yl)-2-methylpropan-2-ol] |
| < 10 | Nc1cc(Nc2cc(OC3CC3)c(-c3cnn(CCN4CCC4)c3)cn2)nc(C(F)F)n1 [Compound 182, N4-(5-(1-(2-(azetidin-1-yl)ethyl)-1H-pyrazol-4-yl)-4-cyclopropoxypyridin-2-yl)-2-(difluoromethyl)pyrimidine-4,6-diamine] |
| 10 to 40 | C[C@@H](CF)Nc1cc(Nc2cc(N)nc(C(F)F)n2)ncc1C(=O)NC12CC(CO)(C1)C2 [Compound 188, (S)-6-((6-amino-2-(difluoromethyl)pyrimidin-4-yl)amino)-4-((1-fluoropropan-2-yl)amino)-N-(3-(hydroxymethyl)bicyclo[1.1.1]pentan-1-yl)nicotinamide] |
| < 10 | CC(CF)Oc1cc(Nc2cc(N)nc(C(F)F)n2)ncc1-c1cnn(CC(C)(C)O)c1 (stereo not drawn) [Compound 190, 1-(4-(6-((6-amino-2-(difluoromethyl)pyrimidin-4-yl)amino)-4-((1-fluoropropan-2-yl)oxy)pyridin-3-yl)-1H-pyrazol-1-yl)-2-methylpropan-2-ol] |
| < 10 | Nc1cc(Nc2cc(OC(F)F)c(-c3cnn(CCN4CCC4)c3)cn2)nc(C(F)F)n1 [Compound 191, N4-(5-(1-(2-(azetidin-1-yl)ethyl)-1H-pyrazol-4-yl)-4-(difluoromethoxy)pyridin-2-yl)-2-(difluoromethyl)pyrimidine-4,6-diamine] |

Reference: patent publication US20250270190A1, “KIT INHIBITORS” (BLUEPRINT MEDICINES CORPORATION, priority 2022, published 2025)
